Measurements as given in PMC7400207, “It Takes Two: Dimerization Is Essential for the Broad-Spectrum Predatory and Defensive Activities of the Venom Peptide Mp1a from the Jack Jumper Ant Myrmecia pilosula” (Biomedicines, 2020).
In brackets after ≈: the same amount, converted by molar mass. Several values for one entry are separate records, joined by “and”; a condition that tells them apart may be missing. Identical values can stand only once. Like-named read-outs stand apart in the source and are kept apart here.

How the values were obtained:
S. aureus NRS 1 = conditions: taken from Dekan et al.; cited from earlier work
HEK293 cells = conditions: HEK293, 24 h, resazurin; cited from earlier work
Procedure: Table 2 Summary of bioassay data for synthetic Mp1a and analogues, including effective concentration (EC50) for activation of F11 cells, concentrations that caused 50% inhibition (IC50) for inhibition of larval development of H. contortus; median lethal dose (LD50) for lethal insecticidal effects on D. melanogaster; concentrations required to induce 50% cell death (CC50) for effects on viability o | column: Cytotoxicity (CC50 µM) ^b

[1] = system: K. pneumoniae ATCC 700603; conditions: taken from Dekan et al.; cited from earlier work
E. coli ATCC 25922 = conditions: taken from Dekan et al.; cited from earlier work
Haemonchus contortus = test: microbe, parasite or virus in culture; format: cell-based
Procedure: Sheep were infected with H. contortus Kirby isolate (field isolate from the University of New England Kirby Research Farm in 1986; susceptible to all commercial anthelmintics) and housed at the Commonwealth Scientific and Industrial Research Organisation (CSIRO) FD McMaster Laboratory, Armidale, NSW. All animal procedures were approved by the FD McMaster Animal Ethics Committee, CSIRO (Approval Number AEC 17/12, approval date 15.6.2017). Eggs were prepared from overnight fecal collection as described. In brief, feces were filtered through mesh filters, settled, and supernatant removed by vacuum. Eggs were recovered by density centrifugation using 10 and 25% (w/v) sucrose solutions, centrifuged at 650× g for 7 min. Eggs were recovered from the interface of the two sucrose layers, rinsed with distilled water, sterilized with bleach, rinsed again, and diluted to 4500 eggs/mL. Tylosin tartrate (800 μg/mL) and amphotericin B (25.0 μg/mL) were added, and eggs were used immediately for larval development assays.
Assays were conducted using 96-well microtitre plates, with each well containing 50 μL of 2% agar, 20 μL of egg solution and 20 μL of peptide solution in water. The commercial anthelmintic levamisole (Sigma Aldrich) was used as a positive control (final 1% v/v). Negative controls contained equivalent volumes of water or DMSO (final 1% v/v). Plates were incubated at 26 °C for six days. After 24 h, each well was fed with 10 μL of a nutrient solution containing Escherichia coli XL1-Blue1 (grown overnight at 37 °C) and growth medium. The growth medium consisted of yeast extract (1% w/v), Earle’s salt solution (10% v/v), saline solution (0.9% NaCl, w/v), and sodium bicarbonate (1 mM) in Luria-Bertani medium (LB). Larvae were killed and stained with Lugol’s iodine solution after six days. Larvae that had developed to the infective L3 stage were counted, and the numbers in treated assay wells were expressed as a percentage of the number of infective L3 stage larvae in multiple control wells. Concentrations that caused 50% inhibition (IC50 values) were calculated from three experiments of duplicate assays.

[2] = system: K. pneumoniae ATCC BAA-2146; conditions: taken from Dekan et al.; cited from earlier work
F11 cells = test: FLIPR calcium assay, activation of F11 cells; format: cell-based; conditions: F11 cells, FLIPR
How it was run: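 Intracellular calcium in F11 cells loaded 30 min at 37°C with Calcium 4 dye in physiological salt solution. Fluorescence read 10 s before and 300 s after peptide addition (PSS with 0.1% BSA); max–min signal as response, EC50 from four-parameter Hill fit, triplicates.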

S. aureus NARSA-VRS10 = conditions: taken from Dekan et al.; cited from earlier work
[3] = system: S. pneumoniae ATCC 700677; conditions: taken from Dekan et al.; cited from earlier work
Drosophila melanogaster = Drosophila melanogaster microinjection assay; format: in vivo; conditions: intrathoracic injection, 50 nL, adult female flies, lethality at 24 h; three dose-response curves, ± SEM
How it was run: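 Adult female flies (3–5 days, 0.7–0.9 mg) received intrathoracic injections of 50 nL aqueous analogue; lethality scored at 24 h, corrected for water-injected controls by Henderson-Tilton. LD50 from three dose–response curves of 7–10 doses, eight flies per dose.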

P. aeruginosa ATCC 27853 = conditions: taken from Dekan et al.; cited from earlier work
A. baumannii ATCC 19606 = conditions: taken from Dekan et al.; cited from earlier work
S. aureus NARSA-VRS1 = conditions: taken from Dekan et al.; cited from earlier work
S. aureus NRS 17 = conditions: taken from Dekan et al.; cited from earlier work
S. aureus ATCC 43300 = conditions: taken from Dekan et al.; cited from earlier work

For `CC[C@H](C)[C@H](N)C(=O)N[C@@H](CC(=O)O)C(=O)N[C@@H](Cc1c[nH]c2ccccc12)C(=O)N[C@@H](CCCCN)C(=O)N[C@@H](CCCCN)C(=O)N[C@H](C(=O)N[C@@H](CC(=O)O)C(=O)N[C@@H](Cc1c[nH]c2ccccc12)C(=O)N[C@@H](CCCCN)C(=O)N[C@@H](CCCCN)C(=O)N[C@H](C(=O)N[C@@H](CO)C(=O)N[C@@H](CCCCN)C(=O)N[C@@H](CCCCN)C(=O)N[C@H](C(=O)N[C@H]1CSSC[C@@H](C(=O)N[C@@H](CCCCN)C(=O)N[C@@H](CCCCN)C(=O)N[C@H](C(=O)N[C@@H](CC(C)C)C(=O)N[C@@H](CCCCN)C(=O)N[C@@H](CCC(N)=O)C(N)=O)C(C)C)NC(=O)[C@H](C(C)C)NC(=O)[C@H]([C@@H](C)O)NC(=O)[C@H](CCCCN)NC(=O)[C@H](C(C)C)NC(=O)[C@H](CC(C)C)NC(=O)[C@H](C(C)C)NC(=O)[C@@H](NC(=O)[C@@H](NC(=O)CNC(=O)[C@H](CCCCN)NC(=O)[C@H](CO)NC(=O)[C@@H](NC(=O)[C@H](CC(C)C)NC(=O)CNC(=O)[C@@H](NC(=O)[C@@H](N)CC(C)C)[C@@H](C)CC)C(C)C)[C@@H](C)O)CSSC[C@@H](C(=O)N[C@@H](CCCCN)C(=O)N[C@@H](Cc2ccccc2)C(=O)N[C@@H](CC(C)C)C(N)=O)NC(=O)[C@H](C)NC(=O)[C@H](CCCCN)NC(=O)[C@H](CC(C)C)NC(=O)[C@H](CCSC)NC(=O)[C@H](C(C)C)NC(=O)[C@H](CCCCN)NC1=O)[C@@H](C)O)C(C)C)C(C)C` [Analogue 1a, ∆-myrtoxin-Mp1a], the MIC (S. aureus NRS 1) is given as 3.2 µM (≈ 17.9 µg/mL), the “Cytotoxicity (CC50)” value (HEK293 cells) is given as 600 nM and the MIC [1] is given as 0.4 to 0.8 µM. The MIC (E. coli ATCC 25922) was 0.1 to 0.2 µM, the IC50 (Haemonchus contortus; H. contortus Kirby isolate, egg to infective L3, 6 days, 26 °C, three experiments of duplicate assays, ± SEM, for 1a the component at higher concentrations (about 90% of population), read-out: Anthelmintic Activity (IC50), inhibition of larval development) was 6800 ± 500 nM and the IC50 (Haemonchus contortus; H. contortus larval development, component of the response at < 2 µM, read-out: IC50 for the response observed at lower concentrations (biphasic curve)) was 190 nM. For the same compound, the “Larval development as % of that observed in control assays” value (Haemonchus contortus; at low micromolar concentrations (< 2 µM)) was 90%, the “Fold more potent than spider-venom peptide Hi1a” value (Haemonchus contortus; larval development, same assay) was “about threefold” and the MIC [2] was 0.1 to 0.2 µM. For the same compound, the “Concentration at which cytolysis (rapid increase in fluorescence followed by decrease to or below baseline) was observed” value (F11 cells) was ≥ 1 µM, the EC50 (F11 cells; Calcium 4 dye, max-min fluorescence in 300 s after peptide addition, PSS with 0.1% BSA, mean ± SEM, triplicate, read-out: Neuronal Cell Activation (EC50)) was 850 ± 30 nM and the MIC (S. aureus NARSA-VRS10) was 0.8 µM (≈ 4.49 µg/mL). For the same compound, the MIC [3] was 0.4 to 0.8 µM, the “Insecticidal Activity (LD50)” value (Drosophila melanogaster) was 260 pmol/g and 260.1 ± 16.6 pmol/g and the MIC (P. aeruginosa ATCC 27853) was 0.4 to 0.8 µM. The MIC (A. baumannii ATCC 19606) was 0.025 µM (≈ 0.14 µg/mL), the MIC (S. aureus NARSA-VRS1) was 3.2 to 6.4 µM and the MIC (S. aureus NRS 17) was 0.4 to 0.8 µM. For the same compound, the MIC (S. aureus ATCC 43300) was 0.8 µM (≈ 4.49 µg/mL).
